Earlier results as cited in patent US20250287953A1 (CHEMICEUTICAL INC., priority 2021, published 2025).

## zinc pyrithione
  acute oral toxicity to rodents LD50 (50% lethal dose): 269 mg/kg
